The text below walks through data of PubChem BioAssay (NCI).

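Exposure lasted 48 hours, with cells grown in 96-well plates and compounds tested at five concentrations. Abbreviation: GI50, concentration required for 50% inhibition of growth. The concentration for full growth arrest is given as TGI.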

For one assay, the system named is IGROV1 ovarian. Briefly: NCI tumour cell line growth inhibition, 48 h.
Molecule `COc1ccccc1C12OC(=O)C1(C)Oc1ccccc1C2=O` (configuration not stated) gave a TGI of over 100 µM.
Molecule `O=C1C=C(Cl)C(=O)C(c2ccc(Cl)cc2)=C1` showed a TGI of 30.8 µM.
In the case of `CCCCOC(=O)C1OC(O[C@H]2CCC3(C)C(CCC4(C)C3CC=C3C5CC(C)(C)CCC5(C(=O)O)CC[C@]34C)C2(C)C)C(OC2OC(CO)C(O)C(O)C2O)C(OC2OC(CO)C(O)C(O)C2O)C1O` (some centres not stated), the GI50 was over 100 µM and the TGI was over 100 µM.
In the case of `Cn1cc(C2=C(c3cn(C)c4ncccc34)C(=O)NC2=O)c2ccccc21`, the GI50 was 15.5 µM and the TGI is over 25 µM.
For `COc1cc(Cc2cnc(/N=C3\C(=O)N(CN4CCN(c5c(F)cc6c(=O)c(C(=O)O)cn(C7CC7)c6c5OC)CC4C)c4ccc(F)cc43)nc2N)cc(OC)c1OC` (configuration not stated), the GI50 was 25.1 µM and the TGI is over 100 µM.
`Clc1cc2nsnc2c(Cl)n1` registered a TGI of 86.3 µM.
As to `COc1cc(/C=N/NC(=O)c2ccc(C(F)(F)F)nc2Nc2ccc(Cl)cc2C)ccc1O`, the GI50 was 0.838 µM and the TGI was determined as 7.02 µM.
For `COC1CCC2C(NS(=O)(=O)c3ccc(C)cc3)CCCC2O1` (configuration not stated) (tested in a mixture with another compound), the TGI is over 34.5 µM.
As for `NNC(=O)Nc1cccnc1`, the TGI is over 100 µM.
As for `Cc1cc(C)nc(NS(=O)(=O)c2ccc(NC(=O)c3ccc(Cl)c4c(Nc5ccc(S(=O)(=O)Nc6nc(C)cc(C)n6)cc5)c5ccccc5nc34)cc2)n1`, the TGI was over 100 µM.
Still for that read-out and setting: next, `O=S1(=O)c2ccccc2NC(c2ccc3ccccc3c2)CC1c1ccccc1F` (configuration not stated): over 100 µM.
Consider `CCCCCN(CCCCC)CCCNc1c2c(nc3ccc(Cl)cc13)CCCC2`, for which the GI50 was 1.49 µM and the TGI was 5.77 µM.

The test system of a further assay is OVCAR-5 ovarian. Briefly: NCI tumour cell line growth inhibition, 48 h.
`CC(C)=CC(=O)C1c2cccc(O)c2C(=O)c2c(O)cc(C)cc21` (configuration not stated) displayed a TGI of 5.13 µM.
`O=C(Nc1ccccc1)NS(=O)(=O)c1ccc(-n2nc3c(c2-c2cccs2)Cc2ccccc2-3)cc1`: the GI50 was 20.1 µM and the TGI is 89.7 µM.
In the case of `Cc1ccc(N=Nc2ccc(N(CCC#N)CCC#N)cc2C)c(Br)c1`, the TGI was over 100 µM.
`O=CC[C@H]1C(=O)C[C@@H]2CCC[C@@H]21` came in with a TGI of over 100 µM.
Consider `O=C(N/C(=C\c1ccc(/C=C(\NC(=O)c2ccccc2)c2nc3cc([N+](=O)[O-])ccc3[nH]2)cc1)c1nc2cc([N+](=O)[O-])ccc2[nH]1)c1ccccc1`, for which the TGI is over 100 µM.
Molecule `COC1(OC)CCC2C1C1CCC(OC)(OC)C21` (configuration not stated) had a TGI of over 50 µM.
For `C=C(CN1CCN(c2ccc(Cl)cc2F)CC1)c1ccc(C(=O)Nc2ccccc2N)cc1`, the GI50 is 51.7 µM and the TGI was over 100 µM.
For `CCCCC(=O)OCC(=O)[C@]1(O)Cc2c(O)c3c(c(O)c2[C@@H](OC2CC(NC(=O)C(F)(F)F)C(O)C(C)O2)C1)C(=O)c1c(OC)cccc1C3=O` (some centres not stated), the TGI amounted to 7.49 µM.
Molecule `C/C(CC(=O)CCC(=O)Nc1cccc(C(F)(F)F)c1)=N\NC(=O)NN` yielded a TGI of over 100 µM.
`CCN(CCO)CC1CCCC2CCCCC21` (configuration not stated) gave a TGI of over 100 µM.
Regarding `COc1ccccc1C12OC(=O)C1(C)Oc1ccccc1C2=O` (configuration not stated), the TGI was over 100 µM.
With `O=C1C=C(Cl)C(=O)C(c2ccc(Cl)cc2)=C1`, the TGI stood at 39.6 µM.
Turning to `CCCCOC(=O)C1OC(O[C@H]2CCC3(C)C(CCC4(C)C3CC=C3C5CC(C)(C)CCC5(C(=O)O)CC[C@]34C)C2(C)C)C(OC2OC(CO)C(O)C(O)C2O)C(OC2OC(CO)C(O)C(O)C2O)C1O` (some centres not stated), the GI50 was 28.8 µM and the TGI came to 56.4 µM.
Turning to `Cn1cc(C2=C(c3cn(C)c4ncccc34)C(=O)NC2=O)c2ccccc21`, the GI50 is 10.4 µM and the TGI is over 25 µM.
Regarding `COc1cc(Cc2cnc(/N=C3\C(=O)N(CN4CCN(c5c(F)cc6c(=O)c(C(=O)O)cn(C7CC7)c6c5OC)CC4C)c4ccc(F)cc43)nc2N)cc(OC)c1OC` (configuration not stated), the GI50 is 10.6 µM and the TGI is 22.5 µM.
As for `Clc1cc2nsnc2c(Cl)n1`, the TGI is over 100 µM.
`COc1cc(/C=N/NC(=O)c2ccc(C(F)(F)F)nc2Nc2ccc(Cl)cc2C)ccc1O`: the GI50 was 2.9 µM and the TGI was found to be 15.6 µM.
In the case of `COC1CCC2C(NS(=O)(=O)c3ccc(C)cc3)CCCC2O1` (configuration not stated) (tested in a mixture with another compound), the TGI is over 34.5 µM.
Consider `NNC(=O)Nc1cccnc1`, for which the TGI is over 100 µM.
The molecule `Cc1cc(C)nc(NS(=O)(=O)c2ccc(NC(=O)c3ccc(Cl)c4c(Nc5ccc(S(=O)(=O)Nc6nc(C)cc(C)n6)cc5)c5ccccc5nc34)cc2)n1` had a TGI of 32.4 µM.
`O=S1(=O)c2ccccc2NC(c2ccc3ccccc3c2)CC1c1ccccc1F` (configuration not stated) showed a TGI of over 100 µM.
On to `CCCCCN(CCCCC)CCCNc1c2c(nc3ccc(Cl)cc13)CCCC2`, for which the GI50 is 3.36 µM and the TGI was found to be 15 µM.

The next assay has as its system OVCAR-8 ovarian. Briefly: NCI tumour cell line growth inhibition, 48 h.
`O=C(O)c1ccccc1[Se][Se]c1ccccc1C(=O)O` showed a TGI of over 100 µM.
The molecule `CC(C)=CC(=O)C1c2cccc(O)c2C(=O)c2c(O)cc(C)cc21` (configuration not stated) returned a TGI of 7.58 µM.
Still for that read-out and setting: next, `O=C(O)CCc1coc2ccc(O)cc12`: over 100 µM.
For `O=C(Nc1ccccc1)NS(=O)(=O)c1ccc(-n2nc3c(c2-c2cccs2)Cc2ccccc2-3)cc1`, the GI50 was 28.3 µM and the TGI is over 100 µM.
The molecule `Cc1ccc(N=Nc2ccc(N(CCC#N)CCC#N)cc2C)c(Br)c1` showed a TGI of over 100 µM.
`O=CC[C@H]1C(=O)C[C@@H]2CCC[C@@H]21` yielded a TGI of over 100 µM.
`O=C(N/C(=C\c1ccc(/C=C(\NC(=O)c2ccccc2)c2nc3cc([N+](=O)[O-])ccc3[nH]2)cc1)c1nc2cc([N+](=O)[O-])ccc2[nH]1)c1ccccc1` came in with a TGI of over 100 µM.
As to `COC1(OC)CCC2C1C1CCC(OC)(OC)C21` (configuration not stated), the TGI is over 50 µM.
For `C=C(CN1CCN(c2ccc(Cl)cc2F)CC1)c1ccc(C(=O)Nc2ccccc2N)cc1`, the GI50 is 3.4 µM and the TGI was over 100 µM.
`COc1cc2c(cc1OC)-c1c3cc(O)ccc3nn[n+]1CC2` returned a TGI of over 100 µM.
With `CCCCC(=O)OCC(=O)[C@]1(O)Cc2c(O)c3c(c(O)c2[C@@H](OC2CC(NC(=O)C(F)(F)F)C(O)C(C)O2)C1)C(=O)c1c(OC)cccc1C3=O` (some centres not stated), the TGI is over 39.6 µM.
For `C/C(CC(=O)CCC(=O)Nc1cccc(C(F)(F)F)c1)=N\NC(=O)NN`, the TGI was over 100 µM.
For the molecule `CCN(CCO)CC1CCCC2CCCCC21` (configuration not stated), the TGI is over 100 µM.
Molecule `COc1ccccc1C12OC(=O)C1(C)Oc1ccccc1C2=O` (configuration not stated) gave a TGI of over 100 µM.
Still for that read-out and setting: the same measure for `O=C1C=C(Cl)C(=O)C(c2ccc(Cl)cc2)=C1`: 40.7 µM.
As to `CCCCOC(=O)C1OC(O[C@H]2CCC3(C)C(CCC4(C)C3CC=C3C5CC(C)(C)CCC5(C(=O)O)CC[C@]34C)C2(C)C)C(OC2OC(CO)C(O)C(O)C2O)C(OC2OC(CO)C(O)C(O)C2O)C1O` (some centres not stated), the GI50 was 66.8 µM and the TGI was over 100 µM.
On to `Cn1cc(C2=C(c3cn(C)c4ncccc34)C(=O)NC2=O)c2ccccc21`, for which the GI50 was 10.1 µM and the TGI is over 25 µM.
